In patent US11632954B2, “Polymorphs of 5-fluoro-4-imino-3-methyl-1 -tosyl-3,4-dihydropyrimidin-2-one” (ADAMA MAKHTESHIM LTD., priority 2017, dated 2023):

Columns and labels:
Format in all cases: physicochemical
[1] = TG-FTIR thermogram, beginning of decomposition; details: N2 atmosphere; 10° C./min, 25 to 300° C.
Method: FT-Raman Spectroscopy: Bruker Multi-RAM with OPUS 6.5 software; Nd:YAG 1064-nm excitation, Ge detector, 3500-50 cm-1 range; typical measurement conditions: 300 mW nominal laser power, 64 scans, 2 cm-1 resolution; samples pressed into the cavity of aluminum sample holders TG-FTIR: Netzsch Thermo-Microbalance TG 209 with Bruker FT-IR Spectrometer Vector 22; aluminum crucible (with microhole); N2 atmosphere; 10° C./min heating rate, from 25 to 300° C.

[2] = Critical water activity: seeded suspension equilibration of Hydrate vs anhydrous Forms I and II in 2-PrOH/water and THF/water; details: for Result (XRPD): analyzed wet
Method: The critical water activity between the Hydrate and anhydrous Forms I and II was attempted to be determined at room temperature in 2-PrOH/water and THF/water mixtures. […] After two additional days of stirring at RT, the solid was separated from the liquid by centrifuge filtering.
In order to clarify the root cause of the surprising results regarding the critical water activities, three further experiments were performed. The slurries at water activities of 0.5 and 0.7 were repeated using freshly prepared solvent mixtures and the suspension equilibration at a water activity of 0.7 was also performed in 2-PrOH/water mixture. The formation of thick suspension in 2-PrOH/water mixtures was experienced again; the initially obtained thick suspension turned into a well-stirred slurry upon one day of stirring. Then it was seeded with the three forms and the solid was isolated after additional two days of stirring.

[3] = Dehydration of the Hydrate, DSC in an open pan
Method: DSC: TA Instruments DSC Q2000; hermetically closed gold crucible; N2 atmosphere; 10° C./min heating rate, from 20 to 190° C. The melting point is understood as the peak onset.
1) Measuring by DSC in an open pan, the water of crystallization evaporates in the temperature range of 20-100° C. Then a sharp endothermic event due to melting follows in the thermogram at 159° C. (FIG. 10).

[4] = Relative thermodynamic stability of Forms I and II: competitive slurry experiments; details: for Result (XRPD): seeded with Form I + Form II after 4 h, analyzed wet
Method: (§1) The relative thermodynamic stability of the polymorphs was determined by slurry experiments at RT and 5° C. […] The stability was further investigated at 5° C. and in addition, another experiment was performed at MEK at RT. MEK was chosen as suspending media because that was the only solvent where Form II was formed when slurrying the starting material. […] The experiment at 5° C. in TBME was actually carried out only as a control.

[5] = Solubility in suspending medium; details: in MEK
Method: as §1

[6] = Solvate formation in suspension crystallization at RT
Method: 1) About 100 mg of 5-fluoro-4-imino-3-methyl-1-tosyl-3,4-dihydropyrimidin-2(1H)-one was suspended in 1.0 ml of 2-PrOH previously dried over 4 Å molecular sieves and the suspension was stirred for 11 d at RT and filtered through a 0.2-μm PTFE centrifuge filter and analyzed without drying, or dried in dry N2 stream at RT for 1 h.
2) About 100 mg of 5-fluoro-4-imino-3-methyl-1-tosyl-3,4-dihydropyrimidin-2(1H)-one was suspended in 1.0 ml of tert-butyl methyl ether (TBME) previously dried over 4 Å molecular sieves and the suspension was stirred for 11 d at RT, filtered through a 0.2-μm PTFE centrifuge filter and analyzed without drying.
3) About 100 mg of 5-fluoro-4-imino-3-methyl-1-tosyl-3,4-dihydropyrimidin-2(1H)-one was suspended in 1.0 ml of toluene previously dried over 4 Å molecular sieves and the suspension was stirred for 11 d at RT, filtered through a 0.2-μm PTFE centrifuge filter and analyzed without drying.
Form II was prepared by suspension crystallization. About 120 mg of 5-fluoro-4-imino-3-methyl-1-tosyl-3,4-dihydropyrimidin-2(1H)-one was suspended in 0.8 ml of methyl ethyl ketone (MEK) previously dried over 4 Å molecular sieves and the suspension was stirred for 11 d at room temperature and filtered through a 0.2-μm PTFE centrifuge filter. The solid was allowed to dry under ambient conditions for 1 d.

[7] = Solid-state hygroscopicity / stability against hydration

## Cc1ccc(S(=O)(=O)n2cc(F)c(=N)n(C)c2=O)cc1 [Hydrate, 5-fluoro-4-imino-3-methyl-1-tosyl-3,4-dihydropyrimidin-2(1H)-one]
[1]
  decomposition beginning at a temperature (TG-FTIR): greater than 190 °C
[2]; water activity of 0.5 and 0.9, RT (Table 1)
  relative thermodynamic stability among the three forms suspended: more stable
[2]; water activity of 0.5 and higher at RT
  relative stability vs Form I and Form II (ultimate finding): more stable than the two anhydrous forms
[3]
  temperature range in which the water of crystallization evaporates: 20-100 °C
[3]; melting at 159° C. coincides with Form I
  form resulting from dehydration: anhydrous Form I

## Cc1ccc(S(=O)(=O)n2cc(F)c(=N)n(C)c2=O)cc1 [PP539-P1, 5-fluoro-4-imino-3-methyl-1-tosyl-3,4-dihydropyrimidin-2(1H)-one]
[2]; 2PrOH/water = 89.6/10.4, aw 0.7, seeded with HH + Form I + Form II after 1 d
  Result (XRPD): HH″ + traces
[2]; 2PrOH/water = 94.7/5.3, aw 0.5, RT, seeded with HH + Form I + Form II after 3 d
  Result (XRPD): HH′
[2]; 2PrOH/water = 97.5/2.5, aw 0.3, RT, seeded with HH + Form I + Form II after 3 d
  Result (XRPD): Form I
[2]; 2PrOH/water = 99.3/0.7, aw 0.1, RT, seeded with HH + Form I + Form II after 3 d, 2 d more stirring
  Result (XRPD): Form I
[2]; THF/water = 79.7/21.3, aw 0.9, RT, seeded with HH + Form I + Form II after 3 d
  Result (XRPD): HH″
[2]; THF/water = 96.4/3.6, aw 0.7, RT, seeded with HH + Form I + Form II after 3 d
  Result (XRPD): Form II
[2]; repeat, fresh solvent, 2PrOH/water = 94.7/5.3, aw 0.5, seeded with HH + Form I + Form II after 1 d
  Result (XRPD): HH″ + some
[2]; repeat, fresh solvent, THF/water = 96.4/3.6, aw 0.7, seeded with HH + Form I + Form II after 1 d
  Result (XRPD): HH′
[4]; MEK (dry), 5° C.
  Result (XRPD): Form S9 + Form I
[4]; MEK (dry), 22° C.
  Result (XRPD): Form I + Form II
[4]; TBME (dry), 5° C.
  Result (XRPD): Form I
[5]
  solubility: rather high
[6]; with MEK at RT, Form II formed
  formation of thermodynamically stable solvates: does not form thermodynamically stable solvates
[6]; with toluene, 2-PrOH and TBME at RT, Form I formed
  formation of thermodynamically stable solvates: does not form thermodynamically stable solvates

## Cc1ccc(S(=O)(=O)n2cc(F)c(=N)n(C)c2=O)cc1 [Form S5, 5-fluoro-4-imino-3-methyl-1-tosyl-3,4-dihydropyrimidin-2(1H)-one]
[1]
  decomposition beginning at a temperature (TG-FTIR): greater than 180 °C

## Cc1ccc(S(=O)(=O)n2cc(F)c(=N)n(C)c2=O)cc1 [Form S1, 5-fluoro-4-imino-3-methyl-1-tosyl-3,4-dihydropyrimidin-2(1H)-one]
[1]
  decomposition beginning at a temperature (TG-FTIR): greater than 200 °C

## Cc1ccc(S(=O)(=O)n2cc(F)c(=N)n(C)c2=O)cc1 [Form II, 5-fluoro-4-imino-3-methyl-1-tosyl-3,4-dihydropyrimidin-2(1H)-one]
[1]
  decomposition beginning at a temperature (TG-FTIR): greater than 210 °C
[2]; water activity of 0.7, RT (Table 1), patent assumes this finding untrue
  relative thermodynamic stability among the three forms suspended: more stable

## Cc1ccc(S(=O)(=O)n2cc(F)c(=N)n(C)c2=O)cc1 [Form I, 5-fluoro-4-imino-3-methyl-1-tosyl-3,4-dihydropyrimidin-2(1H)-one]
[1]
  decomposition beginning at a temperature (TG-FTIR): greater than 210 °C
[2]; water activity of 0.3 and below, RT
  relative thermodynamic stability among the three forms suspended: thermodynamically most stable
[2]; water activity of 0.3 or less at room temperature
  thermodynamic stability vs the hydrate form: thermodynamically more stable than the hydrate form
[4]; TBME at 5° C.
  relative stability vs Form II in competitive slurry: unequivocally more stable than Form II
[4]; at 5° C. and above
  thermodynamic stability vs polymorph Form II: thermodynamically more stable than polymorph Form II
[4]; water activities of 0.1 and 0.3, RT
  relative thermodynamic stability vs Form II: more stable
[7]
  hygroscopicity: non-hygroscopic
[7]; at higher relative humidity
  kinetic stability against hydration: high kinetic stability against hydration

## Cc1ccc(S(=O)(=O)n2cc(F)c(=N)n(C)c2=O)cc1 [Form S8, 5-fluoro-4-imino-3-methyl-1-tosyl-3,4-dihydropyrimidin-2(1H)-one]
[1]
  decomposition beginning at a temperature (TG-FTIR): greater than 180 °C
